PubChem BioAssay AID248 (DTP/NCI, 2004)
Inconclusive results and toxic doses are left out. No stated cut-off is given here; in the data, active means T/C of 150% or more; inactive means T/C below 125%.

System: L1210 leukemia ip in BDF1 mice, survival T/C
Experiment: NCI In Vivo Anticancer Drug Screen. Data for tumor model L1210 Leukemia (intraperitoneal) in B6D2F1 (BDF1) mice
Conditions: endpoint: mean survival time, higher = longer survival
Outline: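 Transplanted-tumor mice were given test agent; controls received vehicle only. Survival readings from the two groups were divided (treated over control).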

[1] = dose: 100.0 mg/kg/injection, schedule: Q04DX003 (ip), vehicle: saline with Tween-80
[2] = dose: 200.0 mg/kg/injection, schedule: Q04DX003 (ip), vehicle: saline with Tween-80
[3] = dose: 400.0 mg/kg/injection, schedule: Q04DX003 (ip), vehicle: saline with Tween-80
[4] = dose: 100.0 mg/kg/injection, schedule: Q01DX009 (ip), vehicle: Klucel (hydroxypropylcellulose) (HPC)
[5] = dose: 200.0 mg/kg/injection, schedule: Q01DX009 (ip), vehicle: Klucel (hydroxypropylcellulose) (HPC)
[6] = dose: 100.0 mg/kg/injection, schedule: Q04DX003 (ip), vehicle: Klucel (hydroxypropylcellulose) (HPC)
[7] = dose: 200.0 mg/kg/injection, schedule: Q04DX003 (ip), vehicle: Klucel (hydroxypropylcellulose) (HPC)
[8] = dose: 400.0 mg/kg/injection, schedule: Q01DX009 (ip), vehicle: Klucel (hydroxypropylcellulose) (HPC)
[9] = dose: 400.0 mg/kg/injection, schedule: Q04DX003 (ip), vehicle: Klucel (hydroxypropylcellulose) (HPC)
[10] = dose: 100.0 mg/kg/injection, schedule: Q01DX001 (ip), vehicle: saline
[11] = dose: 200.0 mg/kg/injection, schedule: Q01DX001 (ip), vehicle: saline
[12] = dose: 400.0 mg/kg/injection, schedule: Q01DX001 (ip), vehicle: saline
[13] = dose: 100.0 mg/kg/injection, schedule: Q04DX003 (ip), vehicle: saline
[14] = dose: 200.0 mg/kg/injection, schedule: Q04DX003 (ip), vehicle: saline
[15] = dose: 400.0 mg/kg/injection, schedule: Q04DX003 (ip), vehicle: saline
[16] = dose: 100.0 mg/kg/injection, schedule: Q01DX009 (ip), vehicle: saline

Measured: T/C

CCCCCCCCCC(C)CC1CCCCC1 (stereo not given)
inactive: dose: 100.0 mg/kg/injection, schedule: Q01DX001 (ip), vehicle: saline with Tween-80 96 % of control | dose: 200.0 mg/kg/injection, schedule: Q01DX001 (ip), vehicle: saline with Tween-80 96 % of control

C=C1c2c(Cl)cccc2C(CC)(CC)c2cccc(Cl)c21
inactive: [1] 94 % of control | [2] 94 % of control | [3] 92 % of control

CC(CNC1=NCCN1)c1cccc2ccccc12 (stereo not given)
inactive: dose: 50.0 mg/kg/injection, schedule: Q01DX009 (ip), vehicle: Klucel (hydroxypropylcellulose) (HPC) 111 % of control | [4] 103 % of control | [5] 108 % of control

N#CC(N)=NC1CCC(C2CCC(N)CC2)CC1 (stereo not given)
inactive: [4] 97 % of control | [6] 107 % of control | [5] 97 % of control | [7] 94 % of control | [8] 98 % of control | [9] 97 % of control

c1ccc(-c2cc3c(cc2-c2ccccc2)C(c2ccccc2)(c2ccccc2)c2nc4ccccc4nc2-3)cc1
inactive: [1] 95 % of control | [2] 93 % of control | [3] 91 % of control

COc1ccc(NC(=O)c2cc3ccccc3cc2OC(=O)NC(C)(C)C)cc1
inactive: dose: 100.0 mg/kg/injection, schedule: Q04DX002 (ip), vehicle: saline 103 % of control | dose: 200.0 mg/kg/injection, schedule: Q04DX002 (ip), vehicle: saline 113 % of control | dose: 400.0 mg/kg/injection, schedule: Q04DX002 (ip), vehicle: saline 97 % of control

COC(CNCc1ccccc1)OC
inactive: dose: 75.0 mg/kg/injection, schedule: Q01DX001 (ip), vehicle: steriod suspending solution 101 % of control | dose: 150.0 mg/kg/injection, schedule: Q01DX001 (ip), vehicle: steriod suspending solution 102 % of control

COC1CC(O)C(O)C(C)O1 (stereo not given)
inactive: [10] 93 % of control | dose: 100.0 mg/kg/injection, schedule: Q01DX009 (ip), vehicle: saline with Tween-80 100 % of control | [1] 91 % of control | [11] 96 % of control | dose: 200.0 mg/kg/injection, schedule: Q01DX009 (ip), vehicle: saline with Tween-80 91 % of control | [2] 108 % of control | [12] 98 % of control | dose: 400.0 mg/kg/injection, schedule: Q01DX009 (ip), vehicle: saline with Tween-80 89 % of control | [3] 100 % of control

C[Si](C)(C)Oc1cc(N=NNC2=CC(=O)c3ccccc3C2=O)c(O)c2ccccc12
inactive: dose: 12.5 mg/kg/injection, schedule: Q04DX003 (ip), vehicle: saline with Tween-80 93 % of control | dose: 25.0 mg/kg/injection, schedule: Q04DX003 (ip), vehicle: saline with Tween-80 93 % of control | dose: 50.0 mg/kg/injection, schedule: Q04DX003 (ip), vehicle: saline with Tween-80 94 % of control | [3] 97 % of control

C(=N\NC1=NCCN1)/c1ccccc1
inactive: dose: 2.5 mg/kg/injection, schedule: Q01DX009 (ip), vehicle: saline 101 % of control | dose: 5.0 mg/kg/injection, schedule: Q01DX009 (ip), vehicle: saline 97 % of control | dose: 5.0 mg/kg/injection, schedule: Q04DX003 (ip), vehicle: saline 97 % of control | dose: 10.0 mg/kg/injection, schedule: Q01DX001 (ip), vehicle: saline 105 % of control | dose: 10.0 mg/kg/injection, schedule: Q01DX009 (ip), vehicle: saline 93 % of control | dose: 10.0 mg/kg/injection, schedule: Q04DX003 (ip), vehicle: saline 94 % of control | dose: 20.0 mg/kg/injection, schedule: Q01DX001 (ip), vehicle: saline 104 % of control | dose: 20.0 mg/kg/injection, schedule: Q04DX003 (ip), vehicle: saline 97 % of control

CN(N=O)C(=O)NC(=O)NCCCl
inactive: dose: 4.5 mg/kg/injection, schedule: Q01DX001 (ip), vehicle: carboxymethylcellulose (CMC) 118 % of control | dose: 9.0 mg/kg/injection, schedule: Q01DX001 (ip), vehicle: carboxymethylcellulose (CMC) 115 % of control | dose: 26.0 mg/kg/injection, schedule: Q01DX001 (ip), vehicle: carboxymethylcellulose (CMC) 124 % of control

CSc1ccc(C(=O)C(CO)NC(C)=O)cc1 (stereo not given)
inactive: [10] 110 % of control | [11] 98 % of control | [12] 97 % of control

Cc1cc(NC(=O)CCc2ccc(N3C(N)=NC(N)=NC3(C)C)cc2)ccc1S(=O)(=O)F (tested in a mixture with another compound)
inactive: dose: 100.0 mg/kg/injection, schedule: Q01DX001 (ip), vehicle: Klucel (hydroxypropylcellulose) (HPC) 90 % of control | dose: 200.0 mg/kg/injection, schedule: Q01DX001 (ip), vehicle: Klucel (hydroxypropylcellulose) (HPC) 90 % of control | dose: 400.0 mg/kg/injection, schedule: Q01DX001 (ip), vehicle: Klucel (hydroxypropylcellulose) (HPC) 92 % of control

COc1ccc(Nc2ccc(O)c3c2C(=O)c2ccccc2C3=O)c(Br)c1
inactive: [10] 101 % of control | [11] 95 % of control | [12] 97 % of control

CNC(=O)Oc1cccc(NC(=O)N(C(C)C)C(C)C)c1
inactive: [1] 91 % of control | [2] 89 % of control | [3] 88 % of control

CC(=O)c1ccccc1OC(=S)N(C)C
inactive: [1] 87 % of control | [2] 95 % of control

Cc1ccccc1OCC(=O)Nc1cccc(NC(=O)COc2ccccc2C)c1
inactive: dose: 50.0 mg/kg/injection, schedule: Q04DX002 (sc), vehicle: olive oil, sesame oil, peanut oil 110 % of control | dose: 100.0 mg/kg/injection, schedule: Q04DX002 (sc), vehicle: olive oil, sesame oil, peanut oil 100 % of control | dose: 200.0 mg/kg/injection, schedule: Q04DX002 (sc), vehicle: olive oil, sesame oil, peanut oil 95 % of control

C[N+]1(C)C2CCC1C(CO)C(O)C2 (stereo not given)
inactive: [10] 94 % of control | [11] 97 % of control | [12] 94 % of control

CC12CCC(C)(O)C(CC3=C1CCc1ccccc13)C2=O (stereo not given)
inactive: [13] 107 % of control | [14] 104 % of control | [15] 106 % of control

S=c1sscc1-c1ccccc1
inactive: dose: 50.0 mg/kg/injection, schedule: Q04DX003 (ip), vehicle: Klucel (hydroxypropylcellulose) (HPC) 95 % of control | [4] 108 % of control | [6] 111 % of control | [5] 112 % of control | [7] 95 % of control | [8] 110 % of control | [9] 98 % of control

O=[N+]([O-])c1ccc(O)c(C=NCC2CCCC[N-]2)c1.O=[N+]([O-])c1ccc(O)c(C=NCC2CCCC[N-]2)c1.[Ni+2] (stereo not given)
inactive: [1] 90 % of control | [2] 90 % of control

O=c1[nH]c(=O)n(C2OC(CO)C(O)C2O)cc1CCC(F)F (stereo not given)
inactive: dose: 100.0 mg/kg/injection, schedule: Q04DX002 (ip), vehicle: other 105 % of control | dose: 200.0 mg/kg/injection, schedule: Q04DX002 (ip), vehicle: other 102 % of control

COc1ccc(COC(=O)NC2CCCCC2)cc1OC
inactive: dose: 65.0 mg/kg/injection, schedule: Q01DX009 (ip), vehicle: saline 93 % of control | [16] 93 % of control | [13] 112 % of control | dose: 150.0 mg/kg/injection, schedule: Q01DX009 (ip), vehicle: saline 101 % of control | dose: 200.0 mg/kg/injection, schedule: Q01DX009 (ip), vehicle: saline 104 % of control | [14] 118 % of control | dose: 400.0 mg/kg/injection, schedule: Q01DX009 (ip), vehicle: saline 102 % of control | [15] 102 % of control

[Cl][Sn]([Cl])([c]1ccccc1)[c]1ccccc1.c1ccncc1
inactive: dose: 25.0 mg/kg/injection, schedule: Q01DX009 (ip), vehicle: saline 111 % of control | dose: 50.0 mg/kg/injection, schedule: Q01DX009 (ip), vehicle: saline 114 % of control | [16] 96 % of control

CCN(CCCl)CCCNc1c2ccc(Cl)cc2nc2ccc(OC)nc12
inactive: dose: 1.5 mg/kg/injection, schedule: Q01DX009 (ip), vehicle: saline 119 % of control | dose: 6.0 mg/kg/injection, schedule: Q01DX009 (ip), vehicle: saline 91 % of control

O=C1c2cccc(O)c2C(=O)c2c(O)cc(CO)cc21
inactive: [10] 98 % of control | [11] 95 % of control | [12] 95 % of control

Cc1ccc(C[n+]2cc([O-])on2)cc1C
inactive: dose: 100.0 mg/kg/injection, schedule: Q01DX Z (ip), vehicle: saline 105 % of control | dose: 200.0 mg/kg/injection, schedule: Q01DX Z (ip), vehicle: saline 93 % of control

O=S(Sc1ccccc1)c1ccccc1 (stereo not given)
inactive: dose: 0.94 mg/kg/injection, schedule: Q01DX Z (ip), vehicle: saline 104 % of control | dose: 3.75 mg/kg/injection, schedule: Q01DX Z (ip), vehicle: saline 96 % of control
